Source: patent US20200123208A1, “PEPTIDES AND NEMATICIDAL COMPOSITIONS” (priority 2017, published 2020)

Legend:
Type in all cases: in vivo
[1] = tested on: Meloidogyne incognita infective stage juveniles (J2s); test: Chemosensory (chemotaxis) assay towards root exudate, M. incognita J2s; conditions: M. incognita J2s, 100 μM uNLP, 24 h; mean+/-SEM
Description: (§1) Predicted uNLPs from both M. incognita and G. pallida were synthesised by EZBiolab and dissolved into pH adjusted ddH2O to make a 5 mM stock which was aliquoted and stored at −20° C. J2s of both M. incognita and G. pallida were incubated for 24 hours in 200 μl of each peptide in a 24 well plate (SPL Lifesciences, South Korea) at a defined concentration.
A 60 mm Petri dish was divided into two segments, a positive and a negative side, with a 0.5 cm ‘dead zone’ either side of the centre point. The petri dish was filled with 15 ml of 0.25% w/v agar which was allowed to solidify. 3 ml of 0.25% w/v agar slurry in spring water (pH 7, agitated with a magnetic stirrer for several hours to give a smooth consistency) was added to the petri dish and spread evenly over the surface. Root diffusate (attractant) and water only (control) 0.25% agar plugs were embedded in the agar slurry, either side of the assay arena. Root diffusate was collected from 10 tomato plants, aged 3-6 weeks in 1 litre pots, by pouring 500 ml of ddH2O through the soil three times. Diffusate from each plant was combined, filter sterilised and stored at 4° C. for a maximum of 1 month. Root diffusate agar plugs were made by melting 1.25% agar in ddH2O, cooling to 50° C. before mixing with 4 parts of root diffusate. The agar was then allowed to solidify at room temperature. 100 uNLP pre-treated M. incognita or G. pallida J2s were added by pipette to the centre of the plate. J2s which moved out of the ‘dead zone’ after 3 hours were counted and their location (+/−) scored. The distribution of J2s were used to create a chemotaxis index for each plate, which formed one replicate, a total of 10 replicates where completed for each uNLP treatment.

[2] = tested on: Meloidogyne incognita J2s; test: Tomato invasion assay, M. incognita J2s; conditions: 100 μM uNLP, 24 h, tomato seedlings, normalised to negative control
Description: as §1
(§2) Tomato seeds were sterilised with 2.5% NaOCl for 15 minutes, washed 5 times in ddH2O and germinated on 0.5% Murashige and Skoog plates at 23° C. […] Invasion assays were performed by mixing 500 pre-treated M. incognita or G. pallida J2s with agar slurry and a single tomato seedling (2 days post germination) in a 6 well plate. Assays were left at 23° C. for 24 hours in the case of M. incognita and at 18° C. for 24 hours in the case of G. pallida under a 16 hour light and 8 hour darkness cycle. Seedlings were stained using acid fuschin [69] and the number of nematodes within the roots counted.

[3] = tested on: Meloidogyne incognita J2s; test: B. subtilis and C. reinhardtii plant protection assay, M. incognita; conditions: tomato
Description: as §2
B. subtilis were grown overnight in LB media containing ampicillin (100 μg/ml) at 37° C. with shaking, and harvested in the log phase of growth determined by measuring OD600nm. Five ml of culture at 0.5 OD was spun down and the pellet mixed with 3 ml of agar slurry and 500 J2s from either G. pallida or M. incognita. C. reinhardtii clones were grown at 23° C. with shaking, cultures in the log phase were measured at OD750 and 5 ml of culture at 0.5 OD was pelleted by centrifugation. C. reinhardtii pellets were mixed with 3 ml of agar slurry and 500 J2s from either G. pallida or M. incognita. Plant invasion assays were performed as described above.
uNLP secretion inserts, and vector pChlamy_3 were digested using Kpnl/Xbal (New England Biolabs, USA), ligated using T4 ligase (New England Biolabs, USA), and cloned into Escherichia coli One Shot® TOP10 chemically competent cells (Life Technologies, USA) following manufacturer's instructions. Ampicillin (Sigma Aldrich, USA) was used to select E. coli containing the pChlamy_3 plasmid, which was subsequently extracted using the High Pure Plasmid Isolation Kit (Roche) and sequenced (Eurofins Genomics, UK) to identify correct clones. C. reinhardtii was transformed by electroporation following manufacturer's instructions (GeneArt® Chlamydomonas Engineering Kit, Life Technologies) and individual colonies grown on TAP-Agar-Hygromycin plates (10 μg/mL) (Sigma Aldrich, USA) at 23° C. Colonies were picked and grown at 23° C. in 100 ml TAP growth media (Invitrogen, USA) with constant orbital agitation. qRT-PCR was performed to identify clones with the highest level of uNLP expression, which were then selected for downstream assays (pChlamy universal FWD: […], nlp-15b REV: CTACTAGTCGAGGCCGGTA; Mi-nlp-9f REV: GAACGGGCGGATGAAGTAG).
uNLP secretion inserts, and vector pBE-S were digested using Xbal/Mlul (New England Biolabs, USA), ligated using T4 ligase (New England Biolabs, USA), and cloned into E. coli One Shot® TOP10 chemically competent cells (Life Technologies, USA) following manufacturer's instructions. […]

[4] = tested on: mixed-stage Caenorhabditis elegans; test: C. elegans chemotaxis assay (non-target nematode); conditions: 100 μM, 24 h, no statistically significant impact; for chemotaxis index (Cl) towards sodium acetate: control 0.4269; for chemotaxis index (Cl) towards pyrazine: control 0.4904; for chemotaxis index (Cl) towards diacetyl: control 0.6638; for chemotaxis index (Cl) towards benzaldehyde: control 0.7026
Description: C. elegans wild-type N2 Bristol strain were obtained from the C. elegans Genomics Center and maintained on a Escherichia coli (strain OP50) lawn on nematode growth medium (NGM) agar plates (3 g/l NaCl, 17 g/l agar, 2.5 g/l peptone, 5 mg/l cholesterol, 25 mM KH2PO4 (pH 6.0), 1 mM CaCl2, 1 mM MgSO4) at 20° C.. Chemotaxis assays were performed in a 9 cm diameter Petri dish on NGM agar which was split into a positive and negative side with a central ‘dead zone’ of 1.5 cm diameter. 100 mixed-staged C. elegans were washed three times in M9 buffer and soaked in 100 μM PPN uNLP, or M9 vehicle control for 24 hours. 2 μl of 50 mM sodium acetate, 0.5% pyrazine, 0.5% benzaldehyde or 0.5% diacetyl was spotted onto the positive side, 2 μl of ddH2O was spotted onto the negative side. Pyrazine, benzaldehyde and diacetyl volatile attractants were assayed immediately whereas the water soluble sodium acetate was assayed 18 hours following addition to the plate. Assays were maintained in the dark at 20° C., and counted after 1 hour.

[5] = tested on: Steinernema carpocapsae infective juveniles; test: S. carpocapsae host-finding assay (non-target nematode); conditions: S. carpocapsae IJs, 100 μM, 24 h; no statistically significant impact; control 0.2315
Description: S. carpocapsae were cultured in Galleria mellonella at 23° C. Infective juveniles (IJs) were collected using a White trap in PBS. Freshly emerged IJs were used for each assay. 100 IJs were incubated for 24 hours in 100 μM of selected uNLPs, and host-finding assays performed as in Morris et al..

[6] = tested on: Meloidogyne incognita J2s; test: Serotonin-induced stylet thrusting assay, M. incognita J2s; conditions: 100 μM uNLP, 24 h, 5 mM serotonin
Description: as §1
Stylet thrusting assays where performed by incubating 100 M. incognita or G. pallida J2s for 15 minute in 5 mM or 2 mM serotonin (Sigma Aldrich, USA), respectively. J2s were placed on a glass slide and stylet thrusts were counted for randomly selected J2s, for 1 minute each. Counting took place for a maximum of 15 minutes. Longer incubations yielded inconsistent results. At least 30 J2s were counted for each neuropeptide treatment.

| Substance | chemotaxis index (Cl) towards root exudate [1] | host invasion compared to controls [2] | M. incognita invasion relative to untransformed C. reinhardtii ([3]; C. reinhardtii cultures secreting the uNLP) | chemotaxis index (Cl) towards sodium acetate [4] | chemotaxis index (Cl) towards pyrazine [4] | chemotaxis index (Cl) towards diacetyl [4] | chemotaxis index (Cl) towards benzaldehyde [4] | insect host-finding index (Cl) towards Galleria mellonella [5] | rate of serotonergic-induced stylet thrusting compared with controls [6] | M. incognita invasion relative to control ([3]; B. subtilis cultures secreting the uNLP) |
| --- | --- | --- | --- | --- | --- | --- | --- | --- | --- | --- |
| GGGRYFIRPFADQ [Mi-NLP-9f, predicted unamidated NLP of Meloidogyne incognita] | −0.26+/−0.224 | 28.22%+/−5.253 | 10.32%+/−10.32 | 0.5261+/−0.064 | 0.4599+/−0.087 | 0.6+/−0.092 | 0.7463+/−0.047 | 0.2462+/−0.070 |  |  |
| MVSWQPV [Mi-NLP-40, predicted unamidated NLP of Meloidogyne incognita] | −0.04+/−0.04726 |  |  | 0.4820+/−0.115 | 0.5018+/−0.039 | 0.5858+/−0.097 | 0.6686+/−0.065 | 0.3057+/−0.082 | 210%+/−21.35 | 23.72%+/−5.448 |
